For 40 compounds, IC50 results are on record in US10065941B2, “Aminotriazine derivative and pharmaceutical composition comprising the same” (Shionogi & Co., Ltd., priority 2013, dated 2018).

The assay addresses human P2X3 receptor (Homo sapiens (Human), UniProt P56373). Nature of the assay: Evaluation of human P2X3 receptor inhibitory activity (Test Example 1). The following applies: C6BU-1 cell transfected with human P2X3 receptor gene, FLIPR 384. In kind it is cell-based. Put shortly:
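C6BU-1 cells stably expressing human P2X3, loaded with 4 μM Fluo-3-AM 1 h at 37 °C, preincubated 5 min with test compound, then stimulated with 150 nM ATP solution (stock, pre-dispense) and monitored by FLIPR for 4 min. IC50 derived from maximum fluorescence ratio (post-ATP peak over baseline).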

human P2X3 receptor, sequence (P56373 whole entry): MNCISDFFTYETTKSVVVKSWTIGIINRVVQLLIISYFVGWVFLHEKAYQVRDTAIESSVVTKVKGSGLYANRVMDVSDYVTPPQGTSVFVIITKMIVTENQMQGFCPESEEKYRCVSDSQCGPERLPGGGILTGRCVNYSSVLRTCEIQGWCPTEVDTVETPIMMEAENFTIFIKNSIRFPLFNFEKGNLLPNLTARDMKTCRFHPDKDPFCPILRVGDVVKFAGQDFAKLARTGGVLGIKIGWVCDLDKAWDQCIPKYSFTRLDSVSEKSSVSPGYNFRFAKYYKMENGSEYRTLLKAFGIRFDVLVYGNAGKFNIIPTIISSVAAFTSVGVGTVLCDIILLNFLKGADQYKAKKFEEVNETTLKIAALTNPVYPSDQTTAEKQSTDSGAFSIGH

As to `CC(C)Oc1ccc(/N=c2\[nH]c(=O)n(C[C@@H](O)CC(=O)O)c(=O)n2Cc2ccc(Cl)cc2)cc1Cl` [Compound R-179], the IC50 was 56 nM.
To `CCOC(=O)[C@H]1C[C@@H](n2c(=O)[nH]/c(=N\c3ccc(Oc4ccc(Cl)cn4)cc3)n(Cc3ccc(C)cc3)c2=O)C1` [Compound I-173] belongs 8 nM; to `COC(=O)[C@@H](C)Cn1c(=O)[nH]/c(=N\c2ccc(Oc3ncccc3F)cc2)n(Cc2ccc(CF)cc2)c1=O` [Compound I-207], 12 nM; to `CCOC(=O)CCCn1c(=O)[nH]/c(=N\c2ccc(Oc3ncccc3F)cc2)n(Cc2ccc(C)cc2)c1=O` [Compound R-294], 6 nM.
Turning to `C[C@H](CC(=O)O)n1c(=O)[nH]/c(=N\c2ccc(Oc3cccc(F)n3)cc2)n(Cc2ccc(Cl)cc2)c1=O` [Compound I-163], the 50% inhibitory concentration (IC50) turned out to be 8 nM.
`Cc1ccc(Cn2c(=O)n([C@H]3C[C@@H](C(=O)O)C3)c(=O)[nH]/c2=N\c2ccc(Oc3ccc(F)cn3)cc2)cc1` [Compound I-183] showed an IC50 of 12 nM.
To `C[C@@H](C(=O)O)[C@H](C)n1c(=O)[nH]/c(=N\c2ccc(Oc3ccnc(C#N)c3)cc2)n(Cc2ccc(Cl)cc2)c1=O` [Compound R-212] belongs 8 nM; to `COC(=O)[C@@H](C)Cn1c(=O)[nH]/c(=N\c2ccc(Oc3cccc(C(F)(F)F)n3)cc2)n(Cc2ccc(C)cc2)c1=O` [Compound I-035], 12 nM; to `Cc1ccc(Cn2c(=O)n([C@@H](C)[C@@H](C)C(=O)O)c(=O)[nH]/c2=N\c2ccc(Oc3ccc(C)cn3)cc2)cc1` [Compound I-113], 5 nM.
Consider `COC(=O)C(C)(C)Cn1c(=O)[nH]/c(=N\c2ccc(Oc3nc(C)ns3)cc2)n(Cc2ccc(Cl)cc2)c1=O` [Compound R-137], for which the IC50 came to 6 nM.
To `C[C@@H](Cn1c(=O)[nH]/c(=N\c2ccc(Oc3ccc(CO)nc3)cc2)n(Cc2ccc(Cl)cc2)c1=O)C(=O)O` [Compound R-155] belongs 10 nM; to `CCOC(=O)[C@H]1C[C@H](n2c(=O)[nH]/c(=N\c3ccc(Oc4ccc(F)cn4)cc3)n(Cc3ccc(C)cc3)c2=O)C1` [Compound I-176], 7 nM; to `COC(=O)C(C)(C)Cn1c(=O)[nH]/c(=N\c2ccc(Oc3ncc(C)s3)cc2)n(Cc2ccc(C)cc2)c1=O` [Compound R-215], 6 nM.
To `C[C@@H](Cn1c(=O)[nH]/c(=N\c2ccc(Oc3ncccc3F)cc2)n(Cc2ccc(CF)cc2)c1=O)C(=O)O` [Compound I-215] belongs 16 nM; to `Cc1ccc(Oc2ccc(/N=c3\[nH]c(=O)n(CC(C)(C)C(=O)O)c(=O)n3Cc3ccc(Cl)cc3)cc2F)nn1` [Compound R-181], 7 nM.
Compound `COC(=O)C(C)(C)Cn1c(=O)[nH]/c(=N\c2ccc(Oc3ccnc(C#N)c3)cc2)n(Cc2ccc(Cl)cc2)c1=O` [Compound R-100] had a half-inhibitory concentration (IC50) of 6 nM.
Consider `CC(C)(Cn1c(=O)[nH]/c(=N\c2ccc(Oc3cc(Cl)ncn3)cc2)n(Cc2ccc(Cl)cc2)c1=O)C(=O)O` [Compound R-092], for which the IC50 worked out at 10 nM.
The result for `C[C@@H](Cn1c(=O)[nH]/c(=N\c2ccc(Oc3ccccn3)c(F)c2)n(Cc2ccc(Cl)cc2)c1=O)C(=O)O` [Compound I-211] reads 7 nM; that for `COc1nccc(Oc2ccc(/N=c3\[nH]c(=O)n(C[C@H](C)C(=O)O)c(=O)n3Cc3ccc(Cl)cc3)cc2)n1` [Compound R-061], 7 nM; that for `O=C(O)C1(Cn2c(=O)[nH]/c(=N\c3ccc(Oc4ccc(F)cn4)cc3)n(Cc3ccc(Cl)cc3)c2=O)CC1` [Compound I-018], 12 nM.
To `COC(=O)[C@@H](C)Cn1c(=O)[nH]/c(=N\c2ccc(Oc3ncccc3F)cc2)n(Cc2ccc(C)cc2)c1=O` [Compound I-052] belongs 6 nM.
To `C[C@@H](Cn1c(=O)[nH]/c(=N\c2ccc(Oc3ccc(CO)cn3)cc2)n(Cc2ccc(Cl)cc2)c1=O)C(=O)O` [Compound I-084] belongs 8 nM; to `Cc1cc(/N=c2\[nH]c(=O)n(C[C@H](C)C(=O)O)c(=O)n2Cc2ccc(Cl)cc2)ccc1Oc1ccccn1` [Compound I-212], 10 nM; to `Cc1ccc(Cn2c(=O)n([C@H](C)CC(=O)O)c(=O)[nH]/c2=N\c2ccc(Oc3ncccc3F)cc2)cc1` [Compound I-189], 12 nM.
`C[C@@H](Cn1c(=O)[nH]/c(=N\c2ccc(Oc3nc4ccccc4o3)cc2)n(Cc2ccc(Cl)cc2)c1=O)C(=O)O` [Compound R-144] displayed an IC50 of 5 nM. This IC50 is about 2.4-fold lower than that of the compound before.
Turning to `COC(=O)[C@@H](C)Cn1c(=O)[nH]/c(=N\c2ccc(N3CCOCC3)c(C)c2)n(Cc2ccc(Cl)cc2)c1=O` [Compound R-101], the IC50 was found to be 201 nM.
In turn, `Cc1ccc(Cn2c(=O)n(CCC(=O)O)c(=O)[nH]/c2=N\c2ccc(Oc3ccc(Cl)cn3)cc2)cc1` [Compound R-285] displayed an IC50 of 6 nM. Compared with the last compound, the IC50 is about 34-fold lower.
To `CCOC(=O)c1cnc(Oc2ccc(/N=c3\[nH]c(=O)n(CC)c(=O)n3Cc3ccc(Cl)cc3)cc2)c(Cl)c1` [Compound R-015, 1-(4-chlorobenzyl)-6-[4-(3-chloro-5-ethoxycarbonyl-2-pyridyloxy)phenylimino]-3-ethyl-1,3,5-triazinane-2,4-dione] belongs 104 nM.
The result for `CC(C)(Cn1c(=O)[nH]/c(=N\c2ccc(Oc3ccccn3)c(F)c2)n(Cc2ccc(Cl)cc2)c1=O)C(=O)O` [Compound I-230] reads 11 nM; that for `C[C@@H](C(=O)O)[C@H](C)n1c(=O)[nH]/c(=N\c2ccc(Oc3ccc(OC(F)F)cn3)cc2)n(Cc2ccc(Cl)cc2)c1=O` [Compound I-072], 6 nM.
The result for `COC(=O)CCn1c(=O)[nH]/c(=N\c2ccc(-n3ccccc3=O)cc2)n(Cc2ccc(Cl)cc2)c1=O` [Compound R-227] reads 35 nM.
The compound `COC(=O)[C@H](C)[C@H](C)n1c(=O)[nH]/c(=N\c2ccc(Oc3cnccn3)cc2)n(Cc2ccc(Cl)cc2)c1=O` [Compound R-167] registered an IC50 of 11 nM.
To `COC(=O)[C@H](C)[C@H](C)n1c(=O)[nH]/c(=N\c2ccc(Oc3ccc(OC(F)F)cn3)cc2)n(Cc2ccc(Cl)cc2)c1=O` [Compound I-071] belongs 38 nM.
The result for `COC(=O)[C@H](C)[C@H](C)n1c(=O)[nH]/c(=N\c2ccc(Oc3cc(F)nc(F)c3)cc2)n(Cc2ccc(Cl)cc2)c1=O` [Compound R-156] reads 35 nM; that for `CC(C)(Cn1c(=O)[nH]/c(=N\c2ccc(Oc3ccnc(C#N)c3)cc2)n(Cc2ccc(Cl)cc2)c1=O)C(=O)O` [Compound R-108], 8 nM; that for `COC(=O)C(C)(C)Cn1c(=O)[nH]/c(=N\c2ccc(Oc3cccnn3)c(F)c2)n(Cc2ccc(Cl)cc2)c1=O` [Compound R-034], 5 nM.
The result for `COC(=O)[C@@H](C)Cn1c(=O)[nH]/c(=N\c2ccc(Oc3ccc(F)cn3)cc2)n(Cc2ccc(CF)cc2)c1=O` [Compound I-208] reads 12 nM; that for `Cc1ccc(Cn2c(=O)n(CCC(=O)O)c(=O)[nH]/c2=N\c2ccc(Oc3ccccn3)c(Cl)c2)cc1` [Compound R-298], 9 nM; that for `CC(C)(Cn1c(=O)[nH]/c(=N\c2ccc(Oc3cnc(Cl)cn3)cc2)n(Cc2ccc(Cl)cc2)c1=O)C(=O)O` [Compound R-027], 6 nM.
In turn, `C[C@@H](C(=O)O)[C@H](C)n1c(=O)[nH]/c(=N\c2ccc(Oc3cc(F)nc(F)c3)cc2)n(Cc2ccc(Cl)cc2)c1=O` [Compound R-157] registered an IC50 of 6 nM.

The term IC50 denotes the midpoint of a concentration-inhibition curve.
